Test results taken from US7999137B2, “Pesticide bi-phenyl-amidine derivatives” (Bayer Cropscience AG, priority 2006, dated 2011).

Assays:
[1] = logP by HPLC on reversed-phase column (C 18), EEC Directive 79/831 Annex V.A8; type: physicochemical; details: HPLC reversed-phase C 18; 40° C.; 0.1% aqueous formic acid and acetonitrile, linear gradient 10% to 90% acetonitrile
Method: Temperature: 40° C.; Mobile phases: 0.1% aqueous formic acid and acetonitrile; linear gradient from 10% acetonitrile to 90% acetonitrile.
Calibration was carried out using unbranched alkan-2-ones (comprising 3 to 16 carbon atoms) with known logP values (determination of the logP values by the retention times using linear interpolation between two successive alkanones).

Aedes aegypti larvae = assay: In vivo protective test on Aedes aegypti (AEDSAE U), larvae mortality; details: concentration and time not stated
Method: In Vivo Protective Test on Aedes Aegypti (AEDSAE U)
To produce a suitable preparation of the active compound, the active compound is mixed with the stated amount of solvent, and the concentrate is diluted with staining water to the desired concentration.
Aedes aegypti larvae are pipetted with a preparation of active ingredient of the desired concentration.
After the specified period of time, mortality in % is determined. 100% means that all larvae have been killed, a 0% means that none of the larvae have been killed.

Heliotis virescens = assay: Test on Heliotis virescens (HELIVI spray application), egg mortality on soybean leaf sections; type: in vivo; details: eggs on sprayed soybean leaf sections; concentration and time not stated
Text: Heliotis virescens—Test on Heliotis virescens (HELIVI Spray Application)
To produce a suitable preparation of the active compound, 1 part by weight of active compound is mixed with the stated amount of solvent and emulsifier, and the concentrate is dilutes with emulsifier-containing water to the desired concentration.
Soybean (Glycine max.) leaf sections are sprayed with a preparation of the active ingredient of the desired concentration. Once dry, the leaf sections are infested with eggs of cotton bollworm (Heliotis virescens).
After the specified period of time, mortality in % is determined. 100% means that all eggs have been killed and 0% means that none of the eggs have been killed.

| Compound | log p (HCOOH) [1] | activity (mortality of larvae) (Aedes aegypti larvae) | activity (mortality of eggs) (Heliotis virescens) |
| --- | --- | --- | --- |
| CCN(C)C=Nc1ccc(-c2ccc(C=NOC)cc2)cc1F [Compound 77] | 1.73 | good activity |  |
| CCN(C)C=Nc1ccc(-c2cccc(Cl)c2)cc1C [Compound 128] | 2.01 | good activity |  |
| CCN(C)C=Nc1ccc(-c2ccc(OC(F)(F)F)cc2)c(Cl)c1 [Compound 100] | 2.15 | good activity |  |
| CCc1cc(-c2ccc(Cl)c(Cl)c2)ccc1N=CN(C)CC [Compound 54] | 2.37 | good activity |  |
| CCN(C)C=Nc1cc(C)c(-c2ccc(Oc3ccccc3)cc2)cc1C [Compound 47] | 2.56 | good activity |  |
| Cc1cc(-c2ccc(Cl)cc2)c(F)cc1N=CN(C)C(C)C [Compound 104] | 2.22 | good activity |  |
| CCN(C)C=Nc1ccc(-c2ccc(C(F)(F)F)cc2)cc1C [Compound 127] | 2.17 | good activity |  |
| CCN(C)C=Nc1ccc(-c2ccc(Cl)c(C(F)(F)F)c2)cc1C(F)(F)F [Compound 19] | 2.90 | good activity |  |
| CC(C)N(C)C=Nc1ccc(-c2ccc(OC(F)(F)F)cc2)c(Cl)c1 [Compound 105] | 2.42 | good activity |  |
| CCN(C)C=Nc1cc(F)c(-c2ccc(Cl)cc2)cc1C [Compound 99] | 2.23 | good activity |  |
| CCN(C)C=Nc1ccc(-c2ccc(C(C)(C)C)cc2)cc1C [Compound 129] | 2.67 | good activity |  |
| CCN(C)C=Nc1ccc(-c2ccc(F)c(Cl)c2)cc1F [Compound 9] | 1.78 | good activity |  |
| CCN(C)C=Nc1ccc(-c2ccc(OC)c(OC)c2OC)cc1F [Compound 12] | 1.50 |  |  |
| CCN(C)C=Nc1ccc(-c2ccc(Cl)c(C(F)(F)F)c2)cc1Cl [Compound 18] | 2.19 | good activity |  |
| CCN(C)C=Nc1ccc(-c2ccc(OC)cc2)cc1C(F)(F)F [Compound 87] | 1.78 |  |  |
| CCN(C)C=Nc1ccc(-c2ccc(Cl)c(C)c2)cc1C [Compound 108] | 2.14 |  |  |
| CCN(C)C=Nc1ccc(-c2ccc(Oc3ccccc3)cc2)cc1C [Compound 35] | 2.41 |  |  |

| Compound | log p (HCOOH) [1] | activity (mortality of larvae) (Aedes aegypti larvae) | activity (mortality of eggs) (Heliotis virescens) |
| --- | --- | --- | --- |
| CC(C)N(C)C=Nc1ccc(-c2cccc(Cl)c2)c(Cl)c1 [Compound 101] | 2.04 |  |  |
| CCN(C)C=Nc1ccc(-c2ccc(F)c(C)c2)cc1C [Compound 33] | 2.04 |  |  |
| CCN(C)C=Nc1cc(C)c(-c2ccc(Cl)c(C)c2)cc1C [Compound 109] | 2.27 |  |  |
| CCN(C)C=Nc1cc(C)c(-c2ccc(OCc3ccccc3)cc2)cc1C [Compound 48] | 2.55 |  |  |
| CCN(C)C=Nc1ccc(-c2ccc(OC)cc2)cc1F [Compound 88] | 1.59 |  |  |
| CCN(C)C=Nc1ccc(-c2ccc(F)c(F)c2)cc1C(F)(F)F [Compound 83] | 2.09 |  |  |
| CCN(C)C=Nc1ccc(-c2cc(OC)c(OC)c(OC)c2)cc1Cl [Compound 63] | 1.58 |  |  |
| C=CCN(C)C=Nc1cc(C)c(-c2ccc(C(C)=NOCC)cc2)cc1C [Compound 140] | 2.60 |  |  |
| Cc1cc(-c2ccc(C(C)(C)C)cc2)c(C)cc1N=CN1CCOCC1 [Compound 118] | 2.53 |  |  |
| Cc1cc(-c2ccc(C(C)C)cc2)c(C)cc1N=CN1CCCCC1 [Compound 158] | 2.60 |  |  |
| CCN(C)C=Nc1ccc(-c2ccc(F)c(Cl)c2)cc1C(F)(F)F [Compound 4] | 2.36 |  |  |
| CCN(C)C=Nc1cc(C)c(-c2ccc(Cl)cc2C)cc1C [Compound 112] | 2.24 |  |  |
| CCN(C)C=Nc1cc(C)c(-c2ccc([Si](C)(C)C)cc2)cc1C [Compound 151] | 2.98 |  |  |
| CCN(C)C=Nc1ccc(-c2ccc(C(F)(F)F)cc2)cc1F [Compound 26] | 1.87 | good activity | good activity |
| Cc1cc(-c2ccc(F)cc2)c(C)cc1N=C1NCCCN1 [Compound 123] | 1.81 |  |  |
| CCc1cc(-c2ccc(C(F)(F)F)cc2)ccc1N=CN(C)CC [Compound 27] | 2.20 |  |  |
| CCN(C)C=Nc1cc(C)c(-c2ccc(C(C)=NOC)cc2)cc1C [Compound 42] | 2.24 |  |  |
